In patent publication US10774039B2, “Cyclopropene amino acids and methods” (United Kingdom Research and Innovation, priority 2014, dated 2020):

Legend:
PylRS/tRNACUA pair [1] = assay: Site-specific incorporation into sfGFP150TAG expressed in E. coli; format: cell-based, Methanosarcina barkeri; details: SfGFP gene with amber codon at position 150, E. coli, PylRS/tRNACUA pair
Method: FIG. 2A: The PylRS/RNACUA pair directs efficient, site-specific incorporation of 3 into sfGFP bearing an amber stop codon at position 150.
Expression and purification of sfGFP-3 from E. coli Electrocompetent E. coli DH10B cells were co-transformed with pBK-MbPylRS and psfGFP150TAG PyIT^14, 26. Transformed cells were recovered in S.O.B. (1 mL, supplemented with 0.2% glucose) for 1 h at 37° C. and used to inoculate LB containing 50 μg/mL kanamycin and 25 μg/mL tetracycline (LB-KT). The cells were incubated with shaking overnight at 37° C., 250 r.p.m. 1 mL of overnight culture was used to inoculate 100 mL of LB-KT½, the day culture was then incubated (37° C., 250 r.p.m). At O.D.600˜0.3, the culture was divided equally and supplemented with either 3 (1 mM) or H2O (500 μL) and incubated further (37° C., 250 r.p.m). At O.D.600˜0.6 protein expression was induced by the addition of arabinose (0.2%), after 4 h, the cells were harvested by centrifugation (4000 r.p.m, 20 min) and the pellet frozen until further use.
The frozen bacterial pellet was thawed on ice and resuspended in 2.5 mL lysis buffer (Bugbuster®, Novagen®, 50 μg/mL DNAse 1, Roche inhibitor cocktail and 20 mM imidazole). Cells were incubated (4° C., 30 minutes) then clarified by centrifugation (16000 g, 4° C., 30 minutes). The clarified lysates were transferred to fresh tubes and 100 μL Ni-NTA slurry added. The mixtures was incubated with agitation (4° C., 1 h) and then collected by centrifugation (1000 g, 4° C., 5 min). The beads were resuspended three times in 500 μL wash buffer (10 mM Tris-HCL, 40 mM imidazole, 200 mM NaCl, pH 8) and collected by centrifugation (1000 g, 4° C., 5 min). Finally, the beads were resuspended in 100 μL, elution buffer (10 mM Tris-HCL, 300 mM imidazole, 200 mM NaCl, pH 8), pelleted by centrifugation (1000 g, 4° C., 5 min) and the supernatant collected into fresh tubes. The elution was repeated three times with 100 μL of elution buffer. The purified proteins were analysed by 4-12% SDS-PAGE and LC-MS.

PylRS/tRNACUA pair [2] = target: PylRS/tRNACUA pair (Methanosarcina mazei, UniProt Q8PWY1); assay: Dual luciferase reporter assay on ovary extract of flies fed amino acid; format: in vivo, D. melanogaster; design: expressed in transfected cells; host or cells: transgenic Drosophila melanogaster, ovaries (UAS-PylRS driven by nos-vp16-GAL4); details: flies fed 10 mM amino acid
PylRS/tRNACUA pair (Methanosarcina mazei, UniProt Q8PWY1), sequence (Q8PWY1 whole entry, the tested form may be a part): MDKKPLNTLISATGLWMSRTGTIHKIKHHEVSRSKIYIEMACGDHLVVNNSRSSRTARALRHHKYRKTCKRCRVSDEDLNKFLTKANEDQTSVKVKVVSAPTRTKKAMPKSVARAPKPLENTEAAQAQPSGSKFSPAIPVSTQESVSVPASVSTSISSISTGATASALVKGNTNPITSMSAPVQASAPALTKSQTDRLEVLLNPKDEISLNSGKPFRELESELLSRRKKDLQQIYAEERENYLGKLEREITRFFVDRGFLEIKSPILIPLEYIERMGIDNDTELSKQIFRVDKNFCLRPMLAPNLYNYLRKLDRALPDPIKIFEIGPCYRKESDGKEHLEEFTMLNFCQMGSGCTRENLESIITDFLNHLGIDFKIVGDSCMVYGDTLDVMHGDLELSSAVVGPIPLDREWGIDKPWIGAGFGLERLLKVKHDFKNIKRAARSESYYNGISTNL
Method: Dual luciferase assay on ovary extract from 10 female flies expressing Triple-Rep-L in the presence or absence of 10 mM 1 or 10 mM 3. […] The error bars represent the standard deviation of 3 technical replicates from a single biological replicate. FIG. 10B: Site-specific incorporation of 3 (or 1) into GFP_TAG_mCherry-HA in flies expressing PylRS/PyltRNACUA. The full-length protein resulting from unnatural amino acid incorporation is detected by anti-HA western blot. FIG. 10C: Specific labelling of encoded 3 with tetrazine probes. Flies were fed with no amino acid, amino acid 1 (500 flies) or amino acid 3 (100 flies). […] The full-length protein containing the unnatural amino acid was immunoprecipitated from lysed ovaries with anti-GFP beads. The beads were labelled (4g, 4 μM, 200 μL, PBS, RT, 2 h) washed.
Transgenic lines were created by P element insertion using a Drosophila embryo injection service (BestGene Inc.). Lines were generated using the following plasmids: pFT58 (Ala), pFT60 (Ser), pFT62 (Leu) and pFT63 (Met). nos-Gal4-VP16 (Bloomington 4937) and MS1096-Gal4 (Bloomington 8860) were used as Gal4 drivers. All flies were grown at 25° C. on standard Iberian medium. Flies were fed unnatural amino acids by mixing dried yeast with the appropriate concentration of amino acid (usually 10 mM) diluted in dH2O to make a paste. Ovaries were prepared from females that were grown on Iberian fly food supplemented with a yeast paste with or without the amino acid for a minimum of 48 hours. For proteome labelling experiments transgenic male flies of constructs FT58, FT60, FT62 and FT63 were crossed with nos-vp16-GAL4 virgins to generate FT58/nos-vp16-GAL4, FT60/nos-vp16-GAL4, FT62/nos-vp16-GAL4 and FT63/nos-vp16-GAL4 respectively.
Ovaries from 10 females of Triple Rep-L flies recombined with nos-Gal4-VP16 fed 3, 1 or no amino acid were dissected in 100 μl 1× Passive lysis buffer and processed for luciferase assays as previously described^20.

**Q.** Which yield of protein (PylRS/tRNACUA pair [1]) does the source give for `CC(C)(C)OC(=O)NCCCC[C@H](N)C(=O)O` [amino acid 1, N^ε-[(tert-butoxy)carbonyl]-L-lysine, reference compound] here?
**A.** Its yield of protein is 4 mg per litre of culture.

**Q.** What about the “luciferase signal dependent on amino acid addition” value (PylRS/tRNACUA pair [2]) of the same compound?
**A.** The value was “strong luciferase signal”.
